Source: patent US10017504B2, “Piperidine isoxazole and isothiazole orexin receptor antagonists” (MERCK SHARP & DOHME CORP., priority 2014, dated 2018)

Target: human orexin-2 receptor (Homo sapiens (Human), UniProt O43614)
Test: FLIPR Ca2+ Flux Assay, orexin-2 receptor
Type: cell-based
Conditions: CHO cells expressing the human orexin-2 receptor; agonist 70 pM Ala-6,12 human orexin-A; read-out: hOX2 FLIPR IC50
Experimental: In a typical experiment the OX1 and OX2 receptor antagonistic activity of the compounds of the present invention was determined in accordance with the following experimental method. For intracellular calcium measurements, Chinese hamster ovary (CHO) cells expressing the rat orexin-1 receptor or the human orexin-2 receptor, are grown in Iscove's modified DMEM containing 2 mM L-glutamine, […], 1% hypoxanthine-thymidine supplement, 100 U/ml penicillin, 100 μg/ml streptomycin and 10% heat-inactivated fetal calf serum (FCS). The cells are seeded at 20,000 cells/well into Becton-Dickinson black 384-well clear bottom sterile plates coated with poly-D-lysine. All reagents are from GIBCO-Invitrogen Corp. The seeded plates are incubated overnight at 37° C. and 5% CO2. Ala-6,12 human orexin-A as the agonist is prepared as a 1 mM stock solution in 1% bovine serum albumin (BSA) and diluted in assay buffer (HBSS containing 20 mM HEPES, 0.1% BSA and 2.5 mM probenecid, pH7.4) for use in the assay at a final concentration of 70 pM. Test compounds are prepared as 10 mM stock solution in DMSO, then diluted in 384-well plates, first in DMSO, then assay buffer. On the day of the assay, cells are washed 3 times with 100 μl assay buffer and then incubated for 60 min (37° C., 5% CO2) in 60 μl assay buffer containing 1 μM Fluo-4AM ester, 0.02% pluronic acid, and 1% BSA. The dye loading solution is then aspirated and cells are washed 3 times with 100 μl assay buffer. 30 μl of that same buffer is left in each well. Within the Fluorescent Imaging Plate Reader (FLIPR, Molecular Devices), test compounds are added to the plate in a volume of 25 μl, incubated for 5 min and finally 25 μl of agonist is added. Fluorescence is measured for each well at 1 second intervals for 5 minutes and the height of each fluorescence peak is compared to the height of the fluorescence peak induced by 70 pM Ala-6,12 orexin-A with buffer in place of antagonist. […] The intrinsic orexin receptor antagonist activity of a compound which may be used in the present invention may be determined by these assays.

Sequence of human orexin-2 receptor (O43614 whole entry): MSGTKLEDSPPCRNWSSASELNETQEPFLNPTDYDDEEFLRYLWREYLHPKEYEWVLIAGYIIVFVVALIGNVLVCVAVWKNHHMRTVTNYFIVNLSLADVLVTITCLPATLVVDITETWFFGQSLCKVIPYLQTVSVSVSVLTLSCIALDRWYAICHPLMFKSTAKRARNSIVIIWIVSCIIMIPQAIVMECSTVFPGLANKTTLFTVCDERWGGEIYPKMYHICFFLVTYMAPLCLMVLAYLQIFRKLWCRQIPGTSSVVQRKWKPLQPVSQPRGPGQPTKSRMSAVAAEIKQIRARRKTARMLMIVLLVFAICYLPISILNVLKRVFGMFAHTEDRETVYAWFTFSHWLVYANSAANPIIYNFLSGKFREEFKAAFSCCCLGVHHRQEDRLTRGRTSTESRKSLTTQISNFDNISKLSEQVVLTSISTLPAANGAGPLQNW

Row | SMILES | IC50 [nM]
1 | CC(C)C(C)(O)c1cc([C@@H]2CC[C@@H](C)N(C(=O)c3ccccc3-n3nccn3)C2)no1 (single isomer, unassigned) [Example 17] | 24.5
2 | C[C@@H]1CC[C@@H](c2cc([C@H](O)C(F)(F)F)no2)CN1C(=O)c1ccccc1-n1nccn1 [Example 41, (1S)-2,2,2-trifluoro-1-{5-[(3R,6R)-6-methyl-1-{[2-(2H-1,2,3-triazol-2-yl)phenyl]carbonyl}piperidin-3-yl]isoxazol-3-yl}ethanol] | 17.5
3 | C[C@@H]1CC[C@@H](c2cc(C(C)(C)O)sn2)CN1C(=O)c1ccccc1OC(F)(F)F [Example 68, 2-{3-[(3R,6R)-6-Methyl-1-{[2-(trifluoromethoxy)phenyl]carbonyl}piperidin-3-yl]isothiazol-5-yl}propan-2-ol] | 22.8
4 | COCc1ccccc1C(=O)N1C[C@H](c2cc(C(C)(C)O)no2)CC[C@H]1C [Example 21, 2-{5-[(3R,6R)-1-{[2-(Methoxymethyl)phenyl]carbonyl}-6-methylpiperidin-3-yl]isoxazol-3-yl}propan-2-ol] | 1120
5 | COC(C)(C)c1cc([C@@H]2CC[C@@H](C)N(C(=O)c3ccccc3-n3nccn3)C2)no1 [Example 19, (2R,5R)-5-[5-(1-methoxy-1-methylethyl)isoxazol-3-yl]-2-methyl-1-{[2-(2H-1,2,3-triazol-2-yl)phenyl]carbonyl}piperidine] | 27.3
6 | C[C@@H]1CC[C@@H](c2cc(C(C)(C)O)on2)CN1C(=O)c1cc(Cl)ccc1-n1nccn1 [Example 3, (5-Chloro-2-(2H-1,2,3-triazol-2-yl)phenyl)((2R,5R)-5-(5-(2-hydroxypropan-2-yl)isoxazol-3-yl)-2-methylpiperidin-1-yl)methanone] | 1430
7 | C[C@@H]1CC[C@@H](c2cc(C(C)(C)O)on2)CN1C(=O)c1ccccc1-n1nccn1 [Example 1, 2-{3-[(3R,6R)-6-Methyl-1-{[2-(2H-1,2,3-triazol-2-yl)phenyl]carbonyl}piperidin-3-yl]isoxazol-5-yl}propan-2-ol] | 46.9
8 | C[C@@H]1CC[C@@H](c2cc(C(C)(C)O)no2)CN1C(=O)c1ccccc1-c1ccccc1 [Example 26, 2-{5-[(3R,6R)-1-(Biphenyl-2-ylcarbonyl)-6-methylpiperidin-3-yl]isoxazol-3-yl}propan-2-ol] | 22.9
9 | C[C@@H]1CC[C@@H](c2cc(C(C)(O)C3CC3)on2)CN1C(=O)c1ccccc1-n1nccn1 (single isomer, unassigned) [Example 9] | 25.8
10 | C[C@@H]1CC[C@@H](c2cc(C(C)(C)O)no2)CN1C(=O)c1ccccc1OCC(F)F [Example 35, 2-{5-[(3R,6R)-1-{[2-(2,2-Difluoroethoxy)phenyl]carbonyl}-6-methylpiperidin-3-yl]isoxazol-3-yl}propan-2-ol] | 140
11 | C[C@@H]1CC[C@@H](c2cc([C@@H](O)C(F)(F)F)no2)CN1C(=O)c1ccccc1-n1nccn1 [Example 40, (1R)-2,2,2-Trifluoro-1-{5-[(3R,6R)-6-methyl-1-{[2-(2H-1,2,3-triazol-2-yl)phenyl]carbonyl}piperidin-3-yl]isoxazol-3-yl}ethanol] | 11
12 | C[C@@H]1CC[C@@H](c2cc([C@H](O)C(F)(F)F)no2)CN1C(=O)c1ccccc1-n1ncnn1 [Example 47, (1S)-2,2,2-Trifluoro-1-{5-[(3R,6R)-6-methyl-1-{[2-(2H-tetrazol-2-yl)phenyl]carbonyl}piperidin-3-yl]isoxazol-3-yl}ethanol] | 328
13 | C[C@@H]1CC[C@@H](c2cc(C3CCCO3)no2)CN1C(=O)c1ccccc1-n1nccn1 (stereo partly drawn) [Example 56, (2R,5R)-2-Methyl-5-[3-(tetrahydrofuran-2-yl)isoxazol-5-yl]-1-{[2-(2H-1,2,3-triazol-2-yl)phenyl]carbonyl}piperidine] | 311
14 | C[C@@H]1CC[C@@H](c2cc([C@](C)(O)C(F)F)on2)CN1C(=O)c1ccccc1-n1nccn1 [Example 18, (2S)-1,1-Difluoro-2-{3-[(3R,6R)-6-methyl-1-{[2-(2H-1,2,3-triazol-2-yl)phenyl]carbonyl}piperidin-3-yl]isoxazol-5-yl}propan-2-ol] | 92
15 | C[C@@H]1CC[C@@H](c2cc(C(C)(O)C3CC3)no2)CN1C(=O)c1ccccc1-n1nccn1 (single isomer, unassigned) [Example 52] | 47.3
16 | COC(=O)c1ccccc1C(=O)N1C[C@H](c2cc(C(C)(C)O)no2)CC[C@H]1C [Example 30, Methyl 2-({(2R,5R)-5-[3-(1-hydroxy-1-methylethyl)isoxazol-5-yl]-2-methylpiperidin-1-yl}carbonyl)benzoate] | 251
17 | C[C@@H]1CC[C@@H](c2cc([C@H](O)C(F)(F)F)no2)CN1C(=O)c1ccsc1-c1ncccn1 [Example 48, (1S)-2,2,2-Trifluoro-1-(5-{(3R,6R)-6-methyl-1-[(2-pyrimidin-2-ylthiophen-3-yl)carbonyl]piperidin-3-yl}isoxazol-3-yl)ethanol] | 113
18 | CCOc1ccccc1C(=O)N1C[C@H](c2cc(C(C)(C)O)on2)CC[C@H]1C [Example 5, (2-Ethoxyphenyl)((2R,5R)-5-(5-(2-hydroxypropan-2-yl)isoxazol-3-yl)-2-methylpiperidin-1-yl)methanone] | 1190
19 | C[C@@H]1CC[C@@H](c2cc(C(C)(O)C3CC3)on2)CN1C(=O)c1ccccc1-n1nccn1 (single isomer, unassigned) [Example 10] | 15.6
20 | CCC(C)(O)c1cc([C@@H]2CC[C@@H](C)N(C(=O)c3ccccc3-n3nccn3)C2)on1 (stereo partly drawn) [Example 55, 2-{5-[(3R,6R)-6-Methyl-1-{[2-(2H-1,2,3-triazol-2-yl)phenyl]carbonyl}piperidin-3-yl]isoxazol-3-yl}butan-2-ol] | 39.8
21 | C[C@@H]1CC[C@@H](c2cc([C@@H](O)C(F)(F)F)no2)CN1C(=O)c1ccsc1-c1ncccn1 [Example 49, (1R)-2,2,2-Trifluoro-1-(5-{(3R,6R)-6-methyl-1-[(2-pyrimidin-2-ylthiophen-3-yl)carbonyl]piperidin-3-yl}isoxazol-3-yl)ethanol] | 112
22 | C[C@@H]1CC[C@@H](c2cc([C@@H](O)C(F)(F)F)no2)CN1C(=O)c1ccccc1-n1ncnn1 [Example 46, (1R)-2,2,2-Trifluoro-1-{5-[(3R,6R)-6-methyl-1-{[2-(2H-tetrazol-2-yl)phenyl]carbonyl}piperidin-3-yl]isoxazol-3-yl}ethanol] | 356
23 | C[C@@H]1CC[C@@H](c2cc(C(C)(C)O)no2)CN1C(=O)c1ccccc1OCC(F)(F)F [Example 36, 2-{5-[(3R,6R)-6-Methyl-1-{[2-(2,2,2-trifluoroethoxy)phenyl]carbonyl}piperidin-3-yl]isoxazol-3-yl}propan-2-ol] | 212
24 | C[C@@H]1CC[C@@H](c2cc([C@@H](O)C(F)(F)F)no2)CN1C(=O)c1ccccc1C1(C#N)CC1 [Example 44, 1-(2-{[(2R,5R)-2-Methyl-5-{3-[(1R)-2,2,2-Trifluoro-1-hydroxyethyl]isoxazol-5-yl}piperidin-1-yl]carbonyl}phenyl)cyclopropanecarbonitrile] | 26.8
25 | C[C@@H]1CC[C@@H](c2cc(C(C)(C)O)no2)CN1C(=O)c1ccccc1-n1nccn1 [Example 20, 2-{5-[(3R,6R)-6-Methyl-1-{[2-(2H-1,2,3-triazol-2-yl)phenyl]carbonyl}piperidin-3-yl]isoxazol-3-yl}propan-2-ol] | 30.3
26 | CCC(C)(O)c1cc([C@@H]2CC[C@@H](C)N(C(=O)c3ccccc3-n3nccn3)C2)on1 (stereo partly drawn) [Example 54, 2-{5-[(3R,6R)-6-Methyl-1-{[2-(2H-1,2,3-triazol-2-yl)phenyl]carbonyl}piperidin-3-yl]isoxazol-3-yl}butan-2-ol] | 76.1
27 | C[C@@H]1CC[C@@H](c2cc(C(C)(C)O)sn2)CN1C(=O)c1ccsc1-c1ncccn1 [Example 64, 2-(3-{(3R,6R)-6-Methyl-1-[(2-pyrimidin-2-ylthiophen-3-yl)carbonyl]piperidin-3-yl}isothiazol-5-yl)propan-2-ol] | 36.8
28 | C[C@@H]1CC[C@@H](c2cc(C(C)(C)O)no2)CN1C(=O)c1cc(F)ccc1-n1nccn1 [Example 24, 2-{5-[(3R,6R)-1-{[5-Fluoro-2-(2H-1,2,3-triazol-2-yl)phenyl]carbonyl}-6-methylpiperidin-3-yl]isoxazol-3-yl}propan-2-ol] | 215
29 | C[C@@H]1CC[C@@H](c2cc(C(C)(C)O)sn2)CN1C(=O)c1cscc1-n1nccn1 [Example 66, 2-{3-[(3R,6R)-6-Methyl-1-{[4-(2H-1,2,3-triazol-2-yl)thiophen-3-yl]carbonyl}piperidin-3-yl]isothiazol-5-yl}propan-2-ol] | 21.1
30 | C[C@@H]1CC[C@@H](c2cc(C(C)(C)O)no2)CN1C(=O)c1ccccc1-c1cnccn1 [Example 37, 2-(5-{(3R,6R)-6-Methyl-1-[(2-pyrazin-2-ylphenyl)carbonyl]piperidin-3-yl}isoxazol-3-yl)propan-2-ol] | 1030
